Patent publication US7732485B2, “Treatment of cancer” (The University of Manchester, priority 2003, dated 2010)

Tests used:
[1] = system: L1210 cell line; assay: Growth inhibition assay (modified MTT); format: cell-based, murine; conditions: five-day MTT
Description: (§1) The sensitivities of the cell lines to cisplatinum, carboplatinum, and compounds A-F were determined using a growth inhibition assay which was a modified version of the MTT method (modified version of MTT method described in Appendix B).
(§2) The following is a brief description of the eleven different cell lines used in the growth inhibition assay: • The A2780 cell line (1 in FIGS. 1-9) is a human ovarian cell line which is sensitive to cisplatinum and carboplatinum. […] The cor123/cpr (7) cell line is a modified version of the cor123 cell line which has been modified to be resistant to cisplatinum and carboplatinum. • The ccu24 (8) cell line is an epithelial ovarian cancer cell line, developed at the Christie Hospital from a tumour biopsy, and the ccu24/cpr (9) cell line is a modified version of this cell line which is cisplatinum and carboplatinum resistant. • L1210 (10) is a murine leukemia cell line and L1210/M1140 (11) is its platinum drug resistant subline.
(§3) The cell toxicity studies were performed using a modification of the method MTT.^7 The principle of the assay is to assess the growth inhibitory effect of a drug at various doses over a five-day time course. This assay was performed in 96-well microtitre plates. Cells were seeded at densities of 400-1,000 cells per well, depending on the doubling time of the cell line. All cell dilutions were performed in growth medium containing 10% FCS (foetal calf serum).
(§4) Compounds under investigation were dissolved in DMSO (dimethylsulphoxide). Serial dilutions of compound were made into the cell suspension, ensuring that the proportion of DMSO remained below 0.5%. 200 μl of cells and drug mix was added to the 96-well plates in triplicate. The plates were incubated for five days at 5% CO2 and 37° C. After this time, the plates were removed from the incubator and 50 μl of a 3 mg/ml solution of MTT [3-(4,5-dimethyl-thiazol-2-yl)-2,5-diphenyl tetrazolium bromide] was added to each well and incubated in the same conditions for another 3 hours. The medium from each well was aspirated and the formazan crystals were solubilised in 200 μl of DMSO. The plates were read using a Multiskan platereader at 540 nm and 690 nm. Growth inhibition curves were constructed using mean and standard deviation of the triplicate absorbance values and from these curves the IC50 values were calculated.

[2] = system: L1210/M1140 cell line; assay: Growth inhibition assay (modified MTT); format: cell-based, murine; conditions: five-day MTT
Description: as §1, §2, §3, §4

[3] = system: L1210; assay: Comet assay, DNA crosslinking; format: cell-based, murine; conditions: ratio >1 = more cross-linking in parental than in platinum-resistant line
Description: (§5) Preliminary studies have been carried out to investigate the mechanism underlying this increased sensitivity. These studies were carried out using the Comet assay (described in Appendix C), which measures damage to DNA. The results are shown in FIGS. 1 (cisplatinum), 2 (carboplatinum), 3 to 8 (compounds A-F) and 9 (phenylgoldtriphenylphospine, PAuP).
(§6) Table 3 illustrates the results of the following calculation using the DNA cross-linking results obtained in the Comet assays:
(§7) DNA damage was measured by the single cell gel electrophoresis (SCGE) assay or “Comet assay”, originally developed by Ostling and Johnson^8. This is a method for determining the extent of DNA damage and repair capacity within individual cells.^9-11 It has previously been shown that this technique can be used to investigate the mechanism of action of different DNA damaging agents.^12
(§8) Cells were trypsinised, suspended in 0.5 ml of ice cold fresh medium and transferred into plastic 24-well dishes prior to embedding in agarose. For the cross-linking studies treated and control samples were chilled on ice (to prevent any repair of DNA damage) and irradiated to a dose of 20 Gy in a Caesium-137 source (0.4 Gy/min). Control, (unirradiated, non-drug treated cells) were maintained on ice in the same manner as treated samples.
(§9) Glass microscope slides, frosted at one end, were pre-coated with 1% normal agarose in distilled water. These slides were allowed to air dry overnight prior to use. A 1% low melting point agarose (LMP) mixture in PBS was melted and held at 45° C. 1 ml of LMP was then added to 0.5 ml of cell suspension on ice and the resultant mixture was pipetted onto a pre-coated glass microscope slide and allowed to set for 1-2 minutes before being transferred to an ice tray. The slides were immersed in ice cold lysis solution (100 mM EDTA, 10 mM Tris-HCl, 1% Triton ×100, 1% DMSO, 2.5M NaCl) for 1 hr, and washed three times by immersion in fresh double distilled water for 15 minutes.
(§10) Slides were then placed onto a flat bed electrophoresis tank and covered (5-6 mm) with alkali unwinding solution (50 mM NaOH, 1 mM EDTA buffered to pH 12.5) and left under subdued lighting for 45 minutes to allow the DNA to unwind before being subjected to electrophoresis at 0.6V/cm for 25 minutes. Each slide was rinsed with 2×1 ml of 0.4M Tris-HCl, pH 8.0 and allowed to dry in air. The dried slides were then rehydrated for 20 minutes with double distilled water, 2×1 ml of propidium iodide solution (2.5 μg/ml) was added and staining was allowed to proceed for 15 minutes. Slides were then immersed in 1 litre of double distilled water for 1 hour to reduce excess background staining. The slides were cover slipped and then examined at 250× magnification under an epifluorescent microscope (Zeiss-Jenamed) using green light from a 50 watt mercury source with a 580 nm reflector and a 590 nm barrier filter set. Images were captured using an attached Sony HAD-1 interline CCD camera and Komet software analysis package (Kinetic Imaging). Twenty-five images from each of two duplicate slides were captured and analysed and the individual “comet moments” as defined by Olive et al^13, were calculated. The total fluorescence of the image represents the amount of DNA present and the length of the image, measured in pixels, represents the length of migration of the DNA. The head and tail areas of the image were identified and the intensity of each was determined. The tail moment is calculated by multiplying the fraction of DNA present in the tail by half the length of the tail.

[4] = system: A2780-S cell line; assay: Growth inhibition assay (modified MTT); format: cell-based, human; conditions: five-day MTT
Description: as §1, §2, §3, §4

[5] = system: mcp8 cell line; assay: Growth inhibition assay (modified MTT); format: cell-based, human; conditions: five-day MTT
Description: as §1, §2, §3, §4

[6] = system: A2780carb cell line; assay: Growth inhibition assay (modified MTT); format: cell-based, human; conditions: A2780carb, five-day MTT
Description: as §1, §2, §3, §4

[7] = system: cor123 cell line; assay: Growth inhibition assay (modified MTT); format: cell-based, human; conditions: five-day MTT
Description: as §1, §2, §3, §4

[8] = system: cor123/cpr cell line; assay: Growth inhibition assay (modified MTT); format: cell-based, human; conditions: five-day MTT
Description: as §1, §2, §3, §4

[9] = system: mcp1 cell line; assay: Growth inhibition assay (modified MTT); format: cell-based, human; conditions: five-day MTT
Description: as §1, §2, §3, §4

[10] = system: A2780cis cell line; assay: Growth inhibition assay (modified MTT); format: cell-based, human; conditions: A2780cis, five-day MTT
Description: as §1, §2, §3, §4

[11] = system: ccu24 cell line; assay: Growth inhibition assay (modified MTT); format: cell-based, human; conditions: five-day MTT
Description: as §1, §2, §3, §4

[12] = system: ccu24/cpr cell line; assay: Growth inhibition assay (modified MTT); format: cell-based, human; conditions: five-day MTT
Description: as §1, §2, §3, §4

[13] = system: ccu24; assay: Comet assay, DNA crosslinking; format: cell-based, human; conditions: ratio >1 = more cross-linking in parental than in platinum-resistant line
Description: as §5, §6, §7, §8, §9, §10

[14] = system: A2780/mcp8; assay: Comet assay, DNA crosslinking; format: cell-based, human; conditions: ratio >1 = more cross-linking in parental than in platinum-resistant line
Description: as §5, §6, §7, §8, §9, §10

[15] = system: A2780cis; assay: Comet assay, DNA crosslinking; format: cell-based, human; conditions: ratio >1 = more cross-linking in parental than in platinum-resistant line
Description: as §5, §6, §7, §8, §9, §10

[16] = system: cor123; assay: Comet assay, DNA crosslinking; format: cell-based, human; conditions: ratio >1 = more cross-linking in parental than in platinum-resistant line
Description: as §5, §6, §7, §8, §9, §10

[17] = system: A2780mcp1; assay: Comet assay, DNA crosslinking; format: cell-based, human; conditions: ratio >1 = more cross-linking in parental than in platinum-resistant line
Description: as §5, §6, §7, §8, §9, §10

[18] = system: A2780carb; assay: Comet assay, DNA crosslinking; format: cell-based, human; conditions: ratio >1 = more cross-linking in parental than in platinum-resistant line
Description: as §5, §6, §7, §8, §9, §10

[19] = Table 1, first series of assays
[20] = Table 2, further series of assays
[21] = Table 1, first series of assays, mcp8
[22] = Table 2, further series of assays, A2780/mcp8
[23] = Table 1, first series of assays, mcp1
[24] = Table 2, further series of assays, A2780/mcp1

c1ccc([PH]([Au][CH2]c2ccc[c]([Au][PH](c3ccccc3)(c3ccccc3)c3ccccc3)c2)(c2ccccc2)c2ccccc2)cc1 [E]
IC50 [1, 19]: 32.5 nM
IC50 [1, 20]: 35.6 nM
IC50 [2, 19]: 5.3 nM
IC50 [2, 20]: 8.5 nM
DNA crosslinking (Comet) ratio [3]: 0.40
IC50 [4, 19]: 8.9 nM
IC50 [4, 20]: 11.2 nM
IC50 [5, 21]: 0.9 nM
IC50 [5, 22]: 4.7 nM
IC50 [6, 19]: 0.6 nM
IC50 [6, 20]: 0.9 nM
IC50 [7, 19]: 17.7 nM
IC50 [7, 20]: 21.1 nM
IC50 [8, 19]: 1.4 nM
IC50 [8, 20]: 4.4 nM
IC50 [9, 23]: 0.9 nM
IC50 [9, 24]: 3.9 nM
IC50 [10, 19]: 0.4 nM
IC50 [10, 20]: 0.7 nM
IC50 [11, 19]: 10.2 nM
IC50 [11, 20]: 13.5 nM
IC50 [12, 19]: 2.4 nM
IC50 [12, 20]: 5.4 nM
DNA crosslinking (Comet) ratio [13]: 0.46
DNA crosslinking (Comet) ratio [14]: 0.48
DNA crosslinking (Comet) ratio [15]: 0.39
DNA crosslinking (Comet) ratio [16]: 0.43
DNA crosslinking (Comet) ratio [17]: 0.41
DNA crosslinking (Comet) ratio [18]: 0.40

[Au][c]1ccc[c]([Au])c1.c1ccc(P(c2ccccc2)c2ccccc2)cc1.c1ccc(P(c2ccccc2)c2ccccc2)cc1 [B]
IC50 [1, 19]: 26.6 nM
IC50 [1, 20]: 29.6 nM
IC50 [2, 19]: 4.1 nM
IC50 [2, 20]: 7.2 nM
DNA crosslinking (Comet) ratio [3]: 0.47
IC50 [4, 19]: 9.8 nM
IC50 [4, 20]: 12.1 nM
IC50 [5, 21]: 0.4 nM
IC50 [5, 22]: 5.4 nM
IC50 [6, 19]: 0.4 nM
IC50 [6, 20]: 0.7 nM
IC50 [7, 19]: 12.6 nM
IC50 [7, 20]: 15.8 nM
IC50 [8, 19]: 1.2 nM
IC50 [8, 20]: 4.3 nM
IC50 [9, 23]: 0.4 nM
IC50 [9, 24]: 3.5 nM
IC50 [10, 19]: 0.2 nM
IC50 [10, 20]: 0.6 nM
IC50 [11, 19]: 18.7 nM
IC50 [11, 20]: 21.8 nM
IC50 [12, 19]: 2.1 nM
IC50 [12, 20]: 5.1 nM
DNA crosslinking (Comet) ratio [13]: 0.39
DNA crosslinking (Comet) ratio [14]: 0.39
DNA crosslinking (Comet) ratio [15]: 0.36
DNA crosslinking (Comet) ratio [16]: 0.38
DNA crosslinking (Comet) ratio [17]: 0.40
DNA crosslinking (Comet) ratio [18]: 0.37

c1ccc([PH]([Au][c]2cccc[c]2[Au][PH](c2ccccc2)(c2ccccc2)c2ccccc2)(c2ccccc2)c2ccccc2)cc1 [Compound C]
IC50 [1, 19]: 42.7 nM
IC50 [1, 20]: 45.8 nM
IC50 [2, 19]: 5.2 nM
IC50 [2, 20]: 8.4 nM
DNA crosslinking (Comet) ratio [3]: 0.71
IC50 [4, 19]: 12.8 nM
IC50 [4, 20]: 15.2 nM
IC50 [5, 21]: 0.5 nM
IC50 [5, 22]: 4.6 nM
IC50 [6, 19]: 0.5 nM
IC50 [6, 20]: 0.8 nM
IC50 [7, 19]: 14.4 nM
IC50 [7, 20]: 17.6 nM
IC50 [8, 19]: 1.4 nM
IC50 [8, 20]: 4.4 nM
IC50 [9, 23]: 0.5 nM
IC50 [9, 24]: 3.5 nM
IC50 [10, 19]: 0.3 nM
IC50 [10, 20]: 0.6 nM
IC50 [11, 19]: 20.2 nM
IC50 [11, 20]: 23.2 nM
IC50 [12, 19]: 3.3 nM
IC50 [12, 20]: 6.3 nM
DNA crosslinking (Comet) ratio [13]: 0.37
DNA crosslinking (Comet) ratio [14]: 0.41
DNA crosslinking (Comet) ratio [15]: 0.36
DNA crosslinking (Comet) ratio [16]: 0.38
DNA crosslinking (Comet) ratio [17]: 0.38
DNA crosslinking (Comet) ratio [18]: 0.36
